Reference: US12697315B2, “Treatment for interstitial lung disease” (United Therapeutics Corporation, priority 2020, dated 2026)

Legend:
[1] = system: patients with interstitial lung disease and pulmonary hypertension; test: Distance saturation product, INCREASE; format: in vivo, human
Method: Change in distance saturation product is the product of distance walked and lowest SpO2 recorded during the 6-minute walk test.^7 Change from baseline to Week 16 in distance saturation product was analyzed by parametric ANCOVA with no imputation for missing distance saturation product values.

[2] = system: patients with interstitial lung disease and pulmonary hypertension; test: Adverse events and serious adverse events, INCREASE; conditions: 16-week trial
Text: Safety assessments consisted of the development of AEs, vital signs, clinical laboratory parameters, ECG parameters, hospitalizations due to cardiopulmonary indications, exacerbations of underlying lung disease, and oxygenation.
Safety end points included adverse events, abnormal laboratory results, oxygenation as measured by pulse oximetry (Spo2) and supplemental oxygen requirement, changes in pulmonary function test results, hospitalization for a cardiopulmonary indication, and investigator-reported exacerbations of underlying lung disease, defined as acute, clinically significant respiratory deterioration characterized by evidence of new widespread alveolar abnormality.

CCCCC[C@H](O)CC[C@@H]1[C@H]2Cc3cccc(OCC(=O)O)c3C[C@H]2C[C@H]1O [Inhaled treprostinil, treprostinil]
Distance saturation product, Week 16 Change from Baseline, LS Mean (SE) ([1]; ANCOVA): 7.2 (4.5) m % | Distance saturation product, Week 16 Change from Baseline, Mean (SD) ([1]; n 118): 7.607 (45.680) m % | Distance saturation product, Week 16 Change from Baseline, Median ([1]; n 118): 8.385 m % | Distance saturation product, LS Mean Difference (SE) ([1]; week 16, vs placebo): 11.51 (6.5), 95% CI (−1.33, 24.35) m % | between-group difference in the distance-saturation product ([1]; week 16, vs placebo): no significant between-group difference | patients with serious adverse events [2]: patients (23.3%) | Adverse event: Cough ([2]; N = 163): 71 (43.6) no. of patients (%) | Adverse event: Diarrhea ([2]; N = 163): 22 (13.5) no. of patients (%) | Adverse event: Dizziness ([2]; N = 163): 30 (18.4) no. of patients (%) | Adverse event: Dyspnea ([2]; N = 163): 41 (25.2) no. of patients (%) | Adverse event: Fatigue ([2]; N = 163): 23 (14.1) no. of patients (%) | Adverse event: Headache ([2]; N = 163): 45 (27.6) no. of patients (%) | Adverse event: NT-proBNP increased ([2]; N = 163): 9 (5.5) no. of patients (%) | Adverse event: Nausea ([2]; N = 163): 25 (15.3) no. of patients (%) | Adverse event: Oropharyngeal pain ([2]; N = 163): 18 (11.0) no. of patients (%) | Adverse event: Throat irritation ([2]; N = 163): 20 (12.3) no. of patients (%) | Any Serious Event, number of patients ([2]; N = 163): 38 patients | Patients with ≥1 adverse event ([2]; N = 163): 152 (93.3) no. (%) | Patients with ≥1 serious adverse event ([2]; N = 163): 38 (23.3) no. (%) | Serious adverse event: Abdominal pain ([2]; N = 163): 0 n | Serious adverse event: Acute kidney injury ([2]; N = 163): 0 n | Serious adverse event: Acute myocardial infarction ([2]; N = 163): 1 n | Serious adverse event: Acute respiratory failure ([2]; N = 163): 4 n | Serious adverse event: Acute right ventricular failure ([2]; N = 163): 1 n | Serious adverse event: Arrhythmia ([2]; N = 163): 1 n | Serious adverse event: Aspiration ([2]; N = 163): 0 n | Serious adverse event: Atrial fibrillation ([2]; N = 163): 0 n | Serious adverse event: B-cell lymphoma ([2]; N = 163): 1 n | Serious adverse event: Bradycardia ([2]; N = 163): 0 n | Serious adverse event: Bronchitis ([2]; N = 163): 2 n | Serious adverse event: Bronchopulmonary aspergillosis ([2]; N = 163): 1 n | Serious adverse event: Cardiac arrest ([2]; N = 163): 1 n | Serious adverse event: Cardiac failure ([2]; N = 163): 0 n | Serious adverse event: Cardiac failure acute ([2]; N = 163): 0 n | Serious adverse event: Cardiac failure congestive ([2]; N = 163): 1 n | Serious adverse event: Cardiogenic shock ([2]; N = 163): 0 n | Serious adverse event: Cardiopulmonary failure ([2]; N = 163): 1 n | Serious adverse event: Cellulitis ([2]; N = 163): 1 n | Serious adverse event: Cerebral haemorrhage ([2]; N = 163): 1 n | Serious adverse event: Chest pain ([2]; N = 163): 1 n | Serious adverse event: Chronic obstructive pulmonary disease ([2]; N = 163): 2 n | Serious adverse event: Chronic respiratory failure ([2]; N = 163): 2 n | Serious adverse event: Chronic right ventricular failure ([2]; N = 163): 0 n | Serious adverse event: Coagulopathy ([2]; N = 163): 0 n | Serious adverse event: Combined pulmonary fibrosis and emphysema ([2]; N = 163): 1 n | Serious adverse event: Cor pulmonale ([2]; N = 163): 1 n | Serious adverse event: Cor pulmonale acute ([2]; N = 163): 0 n | Serious adverse event: Coronary artery disease ([2]; N = 163): 0 n | Serious adverse event: Death with unknown cause ([2]; N = 163): 3 n | Serious adverse event: Disease progression ([2]; N = 163): 0 n | Serious adverse event: Dyspnoea ([2]; N = 163): 3 n | Serious adverse event: Epistaxis ([2]; N = 163): 0 n | Serious adverse event: Fluid overload ([2]; N = 163): 0 n | Serious adverse event: Haematochezia ([2]; N = 163): 0 n | Serious adverse event: Haemoptysis ([2]; N = 163): 1 n | Serious adverse event: Hyperglycaemia ([2]; N = 163): 1 n | Serious adverse event: Hypertension ([2]; N = 163): 0 n | Serious adverse event: Hypervolaemia ([2]; N = 163): 1 n | Serious adverse event: Hypoxia ([2]; N = 163): 1 n | Serious adverse event: Idiopathic pulmonary fibrosis ([2]; N = 163): 1 n | Serious adverse event: Influenza ([2]; N = 163): 1 n | Serious adverse event: Interstitial lung disease ([2]; N = 163): 3 n | Serious adverse event: Left ventricular failure ([2]; N = 163): 1 n | Serious adverse event: Lumbar vertebral fracture ([2]; N = 163): 0 n | Serious adverse event: Metabolic encephalopathy ([2]; N = 163): 0 n | Serious adverse event: Pain ([2]; N = 163): 0 n | Serious adverse event: Pain in extremity ([2]; N = 163): 1 n | Serious adverse event: Pneumonia ([2]; N = 163): 1 n | Serious adverse event: Pneumonia influenzal ([2]; N = 163): 0 n | Serious adverse event: Pneumothorax ([2]; N = 163): 1 n | Serious adverse event: Post procedural infection ([2]; N = 163): 0 n | Serious adverse event: Presyncope ([2]; N = 163): 0 n | Serious adverse event: Pulmonary congestion ([2]; N = 163): 0 n | Serious adverse event: Pulmonary hypertension ([2]; N = 163): 1 n | Serious adverse event: Pulmonary oedema ([2]; N = 163): 1 n | Serious adverse event: Respiratory distress ([2]; N = 163): 0 n | Serious adverse event: Respiratory failure ([2]; N = 163): 2 n | Serious adverse event: Right ventricular failure ([2]; N = 163): 1 n | Serious adverse event: Scleroderma ([2]; N = 163): 0 n | Serious adverse event: Sepsis ([2]; N = 163): 0 n | Serious adverse event: Syncope ([2]; N = 163): 1 n | Serious adverse event: Tachycardia ([2]; N = 163): 1 n | Serious adverse event: Transplant dysfunction ([2]; N = 163): 0 n | Serious adverse event: Upper respiratory tract infection ([2]; N = 163): 2 n | Serious adverse event: Urosepsis ([2]; N = 163): 0 n | Total no. of adverse events ([2]; N = 163): 890 | Total no. of adverse events leading to withdrawal of treprostinil or placebo ([2]; N = 163): 47 | Total no. of serious adverse events ([2]; N = 163): 53 | patients with serious adverse events ([2]; listed as inhaled treprostinil): 23.3%
